Measured values: the NIST ThermoML archive (doi:10.1016/j.fluid.2015.04.021)
Numbers after ± are expanded uncertainties.

Assays:
[1] = cn = amount concentration of the nth substance listed, in mol/dm3; details: 101.3 kPa, Liquid, Falling or rolling sphere viscometry, c2 = 0
[2] = Liquid; for viscosity: Falling or rolling sphere viscometry; for mass density: Vibrating tube method

O [water] + NCCCC[C@H](N)C(=O)[O-].[K+]
[1]
Details | viscosity [mPa·s]
298.15 K | 0.8908 ± 0.14
303.15 K | 0.799 ± 0.13
308.15 K | 0.722 ± 0.12
313.15 K | 0.6564 ± 0.11
318.15 K | 0.6009 ± 0.096

O [water]
[2], 101.3 kPa
Details | viscosity [mPa·s]
293.15 K | 1.002 ± 0.16
298.15 K | 0.8908 ± 0.14
303.15 K | 0.799 ± 0.13
308.15 K | 0.722 ± 0.12
313.15 K | 0.6564 ± 0.11
318.15 K | 0.6009 ± 0.096

O [water] + O=C([O-])[C@@H]1CCCN1.[K+]
[1]
Details | viscosity [mPa·s]
298.15 K | 0.8908 ± 0.14
303.15 K | 0.799 ± 0.13
308.15 K | 0.722 ± 0.12
313.15 K | 0.6564 ± 0.11
318.15 K | 0.6009 ± 0.096

NCCO [2-aminoethan-1-ol]
[2], 101.33 kPa
Details | mass density [kg/m3] | viscosity [mPa·s]
303.15 K | 1007.7 ± 8 | 14.61 ± 2.3
313.15 K | 999.8 ± 8 | 9.724 ± 1.6
323.15 K | 991.7 ± 8 | 6.807 ± 1.1
333.15 K | 983.7 ± 8 | 4.97 ± 0.8
343.15 K | 975.5 ± 8 | 3.784 ± 0.61
